One block for each molecule: values may come before it.
Assay: solvent given as SMILES

Compound: CCCCC(CC)CN1C(=O)c2cccc3c(C#Cc4ccc(N(c5ccccc5)c5ccc(C#Cc6ccc7c8c(cccc68)C(=O)N(CC(CC)CCCC)C7=O)cc5)cc4)ccc(c23)C1=O (stereo not drawn)
emission maximum (in C1CCCCC1): 472 nm
emission maximum (in C1CCOC1): 631 nm
emission maximum (in CC#N): 549 nm
emission maximum (in Cc1ccccc1): 514 nm
emission maximum (in ClC(Cl)Cl): 587 nm

Compound: CCN(CC)c1ccc2c(c1)C(C)(C)C(=O)C=C2
emission maximum (in O): 552 nm

Compound: N#Cc1ccc(-c2ccc(C3=CCC(c4ccccc4)CC3)s2)s1 (stereo not drawn)
emission maximum (in C1CCOC1): 442 nm
emission maximum (in CC#N): 448 nm
emission maximum (in CCCCCC): 427 nm
emission maximum (in CCO): 444 nm
emission maximum (in OCCOCCO): 452 nm
emission maximum (in c1ccncc1): 452 nm

Compound: N#CC(C#N)=Cc1cn(-c2ccccc2)nc1-c1ccccc1
emission maximum (in C1CCOC1): 427 nm
emission maximum (in C1COCCO1): 426 nm
emission maximum (in CCO): 426 nm
emission maximum (in CCOC(C)=O): 427 nm
emission maximum (in CN(C)C=O): 438 nm
emission maximum (in CO): 426 nm
emission maximum (in CS(C)=O): 443 nm
emission maximum (in Cc1ccccc1): 430 nm
emission maximum (in ClC(Cl)Cl): 432 nm
emission maximum (in ClCCl): 430 nm

Compound: Cc1nnc(-c2cc(-n3c4ccccc4c4ccccc43)c(-n3c4ccccc4c4ccccc43)cc2-c2nnc(C)o2)o1
emission maximum (in CC#N): 504.62 nm
emission maximum (in Cc1ccccc1): 453 nm
emission maximum (in ClCCl): 485.51 nm

Compound: COC(=O)c1ccc(/C=C2\N=C(c3ccc([N+](=O)[O-])cc3)NC2=O)cc1
emission maximum (in C1COCCO1): 510 nm

Compound: Oc1cccc(/N=C/c2ccccc2Oc2ccccc2)c1
emission maximum (in C1CCCCC1): 402 nm
emission maximum (in C1COCCO1): 406 nm
emission maximum (in CC#N): 395 nm
emission maximum (in CC(C)=O): 415 nm
emission maximum (in CC(C)CO): 387 nm
emission maximum (in CC(C)O): 406 nm
emission maximum (in CCCCC): 403 nm
emission maximum (in CCCCCCCCO): 410 nm
emission maximum (in CCCCCCCO): 410 nm
emission maximum (in CCCCCCO): 400 nm
emission maximum (in CCCCO): 416 nm
emission maximum (in CCCCOC(C)=O): 404 nm
emission maximum (in CCCO): 395 nm
emission maximum (in CCOC(C)=O): 420 nm
emission maximum (in CCOCC): 404 nm
emission maximum (in CO): 380 nm
emission maximum (in CS(C)=O): 396 nm
emission maximum (in Cc1ccccc1): 412 nm
emission maximum (in Cc1ccccc1C): 403 nm
emission maximum (in ClC(Cl)Cl): 415 nm
emission maximum (in ClCCl): 407 nm
emission maximum (in N#Cc1ccccc1): 385 nm
emission maximum (in OCCO): 418 nm
emission maximum (in c1ccccc1): 414 nm

Compound: CN(C)c1ccc(-c2ccc(/C=C/c3ccncn3)cc2)cc1
emission maximum (in ClCCl): 570 nm

Compound: c1cc(N2CCCC2)ccn1
emission maximum (in CC1CCCCC1): 313 nm
emission maximum (in CCO): 313 nm
emission maximum (in ClC(Cl)Cl): 313 nm

Compound: CC1(C)C2=C(c3ccc(N(c4ccccc4)c4ccccc4)cc31)P(=O)(c1ccccc1)c1ccccc12 (stereo not drawn)
emission maximum (in CC#N): 580 nm
emission maximum (in CO): 598 nm
emission maximum (in Cc1ccccc1): 511 nm

Compound: CC1(C)c2ccccc2N(c2ccc3c(c2)c2cc(N4c5ccccc5C(C)(C)c5ccccc54)cc4c5ccccc5n3c42)c2ccccc21
emission maximum (in C1CCCCC1): 427.57 nm
emission maximum (in C1CCOC1): 481.94 nm
emission maximum (in Cc1ccccc1): 449 nm

Compound: CC(C)(C)c1ccc2c(c1)c1cc(C(C)(C)C)ccc1n2-c1ccc(C(=CC#N)c2ccc(-n3c4ccc(C(C)(C)C)cc4c4cc(C(C)(C)C)ccc43)cc2)cc1
emission maximum (in Cc1ccccc1): 450 nm

Compound: Nc1ccc2c(c1)NC(=O)CC(=O)N2
emission maximum (in CS(C)=O): 385 nm

Compound: CC[N+]1(CC)CN2C(=N1)C(C(=O)O)=Cc1cc(OC)ccc12
emission maximum (in O): 491 nm

Compound: CCC1=C(CC)C(C)=[N+]2C1=Cc1c(C)c3cc4c(cc3n1[B-]2(F)F)=[N+]1C(=Cc2c(CC)c(CC)c(C)n2[B-]1(F)F)C=4C
emission maximum (in ClC(Cl)Cl): 703 nm

Compound: COc1cc(/C=C/c2cc(OC)c(-c3nc(-c4ccccc4)c(-c4ccccc4)[nH]3)cc2OC)c(OC)cc1/C=C/c1cc(OC)c(-c2nc(-c3ccccc3)c(-c3ccccc3)[nH]2)cc1OC
emission maximum (in C1CCOC1): 510 nm
emission maximum (in CC#N): 515 nm
emission maximum (in CN(C)C=O): 512 nm
emission maximum (in Cc1ccccc1): 502 nm

Compound: Cc1nc2c(ccc3c2sc(/C=C/c2ccc(N(C)C)cc2)[n+]3C)s1
emission maximum (in CO): 600 nm
emission maximum (in ClC(Cl)Cl): 603 nm

Compound: O=c1c2ccccc2nc2ccccn12
emission maximum (in ClCCl): 442 nm

Compound: c1ccc(-c2nc(-c3ccccc3)c(-c3ccccc3)o2)cc1
emission maximum (in Cc1ccccc1): 381 nm

Compound: O=C1c2ccccc2-c2nc3c(F)c(F)c(F)c(F)c3n21
emission maximum (in ClCCl): 485 nm

Compound: Cc1cc(C)c(C2=C3C=C(c4ccc(C(C)(C)C)cc4)C(c4ccc(C(C)(C)C)cc4)=[N+]3[B-](F)(F)n3c2cc(-c2ccc(C(C)(C)C)cc2)c3-c2ccc(C(C)(C)C)cc2)c(C)c1
emission maximum (in C1CCCCC1): 639 nm
emission maximum (in C1CCOC1): 628 nm
emission maximum (in CC#N): 643 nm
emission maximum (in Cc1ccccc1): 645 nm
emission maximum (in ClCCl): 644 nm

Compound: Cn1nc(-c2ccc(C(F)(F)F)cc2)cc1-c1ccccc1
emission maximum (in ClCCl): 341 nm

Compound: CN(C)c1cc2c(cc1F)c(=O)c1cc(F)c(N(C)C)cc1n2C
emission maximum (in CCO): 441 nm

Compound: COc1ccc2cc(-c3ccc(C(F)(F)F)cc3)oc(=O)c2c1
emission maximum (in CCCCCC): 397 nm
emission maximum (in CCCCCCCCO): 410 nm
emission maximum (in CCCCO): 411 nm
emission maximum (in CCCO): 410 nm
emission maximum (in CCO): 412 nm
emission maximum (in CCOC(C)=O): 404 nm
emission maximum (in CN(C)C=O): 411 nm
emission maximum (in CO): 413 nm
emission maximum (in ClC(Cl)Cl): 409 nm

The remaining lines, values ahead:

emission maximum (in CCO): 582 nm
emission maximum (in O): 568 nm
Compound: COc1cccc(OC)c1-c1c2ccc(=[N+]3CCNCC3)cc-2oc2cc(N3CCNCC3)ccc12

emission maximum (in C1CCCCC1): 412 nm
emission maximum (in CC#N): 412 nm
Compound: C[Si](C)(c1cccc2cc3ccccc3cc12)[Si](C)(C)c1cccc2cc3ccccc3cc12

emission maximum (in ClCCl): 445 nm
Compound: CCCCn1c(-c2ccc(-c3nnc(-c4ccc(-c5nc(-c6ccccc6)c(-c6ccccc6)n5CCCC)cc4)o3)cc2)nc(-c2ccccc2)c1-c1ccccc1

emission maximum (in C1CCCCC1): 382 nm
emission maximum (in C1COCCO1): 394 nm
emission maximum (in CC#N): 398 nm
emission maximum (in CC(C)(C)O): 405 nm
emission maximum (in CC(C)O): 404 nm
emission maximum (in CCCCCC): 382 nm
emission maximum (in CCCCO): 405 nm
emission maximum (in CCOC(C)=O): 395 nm
emission maximum (in CN(C)C=O): 398 nm
emission maximum (in CO): 406 nm
emission maximum (in ClCCl): 394 nm
emission maximum (in O): 410 nm
Compound: O=C1Nc2ccccc2/C1=C/C(=O)c1ccc(Cl)cc1

emission maximum (in CO): 586 nm
Compound: CCN(C)c1ccc(C2=C3C(C)=CC(/C=C/c4ccc(OCCCN=[N+]=[N-])cc4)=[N+]3[B-](F)(F)n3c(C)cc(C)c32)cc1

emission maximum (in ClC(Cl)Cl): 454 nm
Compound: Cc1c2c(c(C)c3ccccc13)-c1cc3nc4ccccc4nc3cc1-2

emission maximum (in ClC(Cl)Cl): 631 nm
Compound: CCCN1c2ccccc2Sc2cc(/C=C\c3cc(=O)oc4cc(C)ccc34)ccc21

emission maximum (in O): 570 nm
Compound: CC[n+]1nc2cc3c4c(c2c2ccccc21)CCCN4CCC3

emission maximum (in C1CCOC1): 464.54 nm
emission maximum (in CC#N): 465.9 nm
emission maximum (in CCCCCC): 456 nm
Compound: Cc1cc(C)c(B(c2cc3c4c(c(B(c5c(C)cc(C)cc5C)c5c(C)cc(C)cc5C)cc5c4c2CCC5)CCC3)c2c(C)cc(C)cc2C)c(C)c1

emission maximum (in CC#N): 365 nm
Compound: c1ccc(COc2cc(C[n+]3ccc(-c4cc[n+](Cc5cc(OCc6ccccc6)cc(OCc6ccccc6)c5)cc4)cc3)cc(OCc3ccccc3)c2)cc1

emission maximum (in C1CCOC1): 460 nm
Compound: COc1cc2c(cc1-c1ccc(C#N)cc1)Cc1c3c(c4c(c1-2)-c1cc(OC)c(-c2ccc(C#N)cc2)cc1C4)C(=O)N(CCC(C)C)C3=O

emission maximum (in C1CCOC1): 546 nm
emission maximum (in CCCCCC): 443 nm
emission maximum (in ClC(Cl)Cl): 495 nm
emission maximum (in ClCCl): 568 nm
Compound: O=C1c2cccc3c(-n4c5ccccc5c5ccccc54)ccc(c23)C(=O)N1c1ccccc1

emission maximum (in ClCCl): 509 nm
Compound: CCN(CC)c1ccc2c(c1)oc(=O)c1cc3c(-c4ccccc4)nn(-c4ccccc4)c3nc12

emission maximum (in CC#N): 553.72 nm
emission maximum (in CS(C)=O): 555 nm
Compound: [O-]c1c(-c2nc3ccccc3s2)cc2ccc3cccc4ccc1c2c34

emission maximum (in C1CCCCC1): 396 nm
Compound: COc1ccc2c3c(c4ccc(OC)cc4c2c1)C(C)(C)c1c-3ccc2ccccc12

emission maximum (in ClCCl): 548 nm
Compound: [O-][n+]1c(-c2ccc(Br)cc2)cc(N2CCOCC2)nc1/C=C/c1ccccc1

emission maximum (in CC#N): 492 nm
emission maximum (in CO): 507 nm
emission maximum (in ClCCl): 488 nm
Compound: COc1ccc(-c2[nH]c(=O)n3c2-c2ccccc2C3=O)c(OC)c1

emission maximum (in C1CCCCC1): 329 nm
emission maximum (in CC#N): 340 nm
emission maximum (in CO): 345 nm
emission maximum (in O): 350 nm
Compound: CCOC(=O)CCOc1ccccc1C(c1c(C)[nH]c2ccccc12)c1c(C)[nH]c2ccccc12

emission maximum (in C1CCCCC1): 380 nm
emission maximum (in CO): 400 nm
Compound: COc1ccc(/C=C(\C)c2nc3ccccc3o2)cc1

emission maximum (in ClCCl): 449 nm
Compound: COc1ccc(CCNC(=O)c2sc(-c3ccc(-c4cc(-c5ccc(C(C)(C)C)cc5)c(C(=O)NCCc5ccc(OC)c(OC)c5)s4)s3)cc2-c2ccc(C(C)(C)C)cc2)cc1OC

emission maximum (in CC#N): 512 nm
emission maximum (in CN(C)C=O): 516 nm
emission maximum (in ClCCl): 539 nm
Compound: CCN(CC)c1ccc(/C=N/c2cc3ccccc3cc2/N=C/c2ccc(N(CC)CC)cc2O)c(O)c1

emission maximum (in C1CCOC1): 530 nm
Compound: CC1=[N+]2C(=C(c3ccc(C(=C(c4ccccc4)c4ccccc4)c4ccccc4)cc3)c3ccc(C)n3[B-]2(F)F)C=C1

emission maximum (in ClC(Cl)Cl): 635 nm
Compound: CC1(C)CC[N+]2=c3c(cc4c(c31)Oc1cc3c(cc1C=4c1ccccc1C(=O)O)C(c1ccccc1C(=O)O)=c1cc4c5c(c1O3)C(C)(C)CC[N+]=5CCC4)CCC2

emission maximum (in ClCCl): 448 nm
Compound: CCCCn1c(-c2ccc(-c3nnc(-c4cccs4)o3)cc2)nc2c3ccccc3c3ccccc3c21

emission maximum (in ClCCl): 566 nm
Compound: F[B-]1(F)N2C=CN=CC2=[N+]2[N+]1=Cc1c(-c3ccccc3)cc(-c3cccs3)n1[B-]2(F)F

emission maximum (in ClCCl): 358 nm
Compound: Fc1ccc(-c2ccc(-c3cc(-c4ccccn4)nc(-c4ccccn4)c3)cc2)c(F)c1

emission maximum (in ClCCl): 457 nm
Compound: CCOC(=O)c1c(-c2cc3ccccc3oc2=O)nn(-c2ccc(OC)cc2)c1C(=O)OCC

— the Deep4Chem optical property database
